Drawing on US9890147B2 (BAYER PHARMA AKTIENGESELLSCHAFT, priority 2012, dated 2018), this text covers IC50 for one compound.

In one test the test system is LOX-IMVI cells. The test is described as follows: Cell proliferation assay (alamarBlue), LOX-IMVI. The following applies: Homo sapiens, 72 hours incubation, inhibition of cell proliferation. It counts as cell-based. The essentials: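 Cells seeded at 1000/well in RPMI1640 with 10% FCS, incubated overnight at 37° C, then treated with dilutions from 1E-5 to 1E-8 M for 72 h. Viability read by alamarBlue fluorescence (ex 530/em 590 nm); pre-treatment values subtracted and compared with buffer-only cells to derive IC50.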

The subject of a further test is MOLM-13 cells. Description: Cell proliferation assay (alamarBlue), MOLM-13. The format is cell-based. The following applies: Homo sapiens, 96 hours incubation, inhibition of cell proliferation. A digest of the protocol:
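Cells in RPMI1640/10% FCS read by alamarBlue fluorescence (ex 530, em 590 nm) after overnight 37 °C incubation, then treated at 1E-5 to 1E-8 M for 96 h. Pre-treatment values subtracted from endpoint values and compared with buffer-only wells; IC50 is 50% proliferation inhibition.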

For another test, the system named is MOLP-8 cells. Description: Cell proliferation assay (alamarBlue), MOLP-8. The note with it: Homo sapiens, 120 hours incubation, inhibition of cell proliferation. The format is cell-based. The essentials: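 MOLP-8 cells in RPMI1640 with 20% FCS, 4000 cells/well, treated overnight after seeding with substance at 1E-5 to 1E-8 M for 120 h at 37° C. Viability read by alamarBlue fluorescence (ex 530, em 590); pre-treatment values subtracted, compared with buffer-only cells to derive IC50.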

In the next test the test system is MV4-11 cells. Description: Cell proliferation assay (alamarBlue), MV4-11. The format is cell-based. The following applies: Homo sapiens, 72 hours incubation, inhibition of cell proliferation. A digest of the protocol: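 Cells seeded at 5000/well in RPMI1640 + 10% FCS, incubated overnight at 37° C, then treated with compound (1E-5 to 1E-8 M) for 72 h at 37° C. Viability by alamarBlue fluorescence (ex 530/em 590 nm); pre-treatment readings subtracted, IC50 derived versus buffer-treated cells.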

Another test has as its system KMS-12-PE cells. Description: Cell proliferation assay (alamarBlue), KMS-12-PE. It counts as cell-based. The note with it: Homo sapiens, 120 hours incubation, inhibition of cell proliferation. A digest of the protocol: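 KMS-12-PE myeloma cells in RPMI1640 with 20% FCS were exposed to compound (1E-5 to 1E-8 M) for 120 h at 37° C. AlamarBlue fluorescence (ex 530, em 590 nm) read before and after treatment; the difference versus buffer-treated cells gave IC50.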

A further test relates to B16F10 cells. Description: Cell proliferation assay (alamarBlue), B16F10. It counts as cell-based. The following applies: Mus musculus, B16-F10, 96 hours incubation, inhibition of cell proliferation. The essentials: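 alamarBlue fluorescence (ex 530/em 590 nm) read after overnight seeding at 300-500 cells/well in DMEM + 10% FCS, then after 96 h at 37 °C with compound at 1E-8 to 1E-5 M. Baseline subtracted from endpoint, compared with buffer-treated cells; IC50 = concentration giving 50% proliferation inhibition.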

A further test concerns LAPC-4 cells. The test is described as follows: Cell proliferation assay (alamarBlue), LAPC-4. It counts as cell-based. The note with it: Homo sapiens, LAPC4; inhibition of cell proliferation, LAPC-4 (prostate cancer), 1 nM methyltrienolone, 168 hours.
The next test deals with T1, BRD4 (BD1) (Homo sapiens, UniProt O60885).
T1 construct: with relatively long constructs also being possible, preferably amino acids 44-168; made in house; host or cells: E. coli
The test is described as follows: Binding assay BRD4/acetylated peptide H4 (TR-FRET protein-protein interaction assay). A digest of the protocol: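 His6-BRD4 BD1 (aa 67-152, E. coli), usually 10 nM, with biotinylated tetra-acetylated H4 peptide in HEPES pH 7.5 buffer; 11 compound concentrations 0.1 nM–20 μM in duplicate, 10 min preincubation, 1 h at 22 °C then ≥3 h at 4 °C. TR-FRET 665/620 ratio; IC50 by 4-parameter fit.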

For the next test, the system named is MDA-MB-231 cells. Description: Cell proliferation assay (alamarBlue), MDA-MB-231. It counts as cell-based. The note with it: Homo sapiens; inhibition of cell proliferation, MDA-MB-231 (breast carcinoma), 96 hours. A digest of the protocol: (§1)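 Caov-3 (MEM Earle's, 10% FCS, 2000 cells/well) and MDA-MB-231 (DMEM/Ham's F12, 10% FCS, 4000 cells/well) were treated after overnight attachment with 1E-5 to 1E-8 M compound. Caov-3 exposure was 96 h. alamarBlue fluorescence (ex 530, em 590 nm) was read after background subtraction of day-0 values, and IC50 calculated versus buffer-treated cells.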

A further test relates to Caov-3 cells. Description: Cell proliferation assay (alamarBlue), Caov-3. It counts as cell-based. The following applies: Homo sapiens; inhibition of cell proliferation, Caov-3 (ovarian carcinoma), 96 hours. A digest of the protocol: as §1

The structures appear in SMILES notation.

As to `CNC(=O)N1N=C(c2ccc(N3CCC(O)CC3)cc2)c2cc(OC)c(OC)cc2C[C@@H]1C` [Example 130.1, (4S)-1-[4-(4-hydroxypiperidin-1-yl)phenyl]-7,8-dimethoxy-N,4-dimethyl-4,5-dihydro-3H-2,3-benzodiazepine-3-carboxamide], the IC50 is 190 nM with LOX-IMVI cells; 70 nM in the test on MOLM-13 cells; 50 nM in the test with MOLP-8 cells; 50 nM in the test on MV4-11 cells; 70 nM in the test with KMS-12-PE cells; 100 nM in the test with B16F10 cells. The IC50 in the test with LAPC-4 cells was determined as 50 nM; on BRD4 (BD1), 20 nM; in the test with MDA-MB-231 cells, 140 nM; in the test with Caov-3 cells it was 3 nM.
